# Laboratory results taken from US9370526B2, “Combination hormone replacement therapy (HRT) and melatonin to prevent and treat mammary cancer” (Duquesne University of the Holy Spirit, priority 2009, dated 2016).
# Legend:
# [1] = tested on: RNA expression in the lower mammary gland; experiment: RNA expression in the lower mammary gland by microarray analysis; format: in vivo, mice
# Description: FIG. 3 reports aggregated data regarding thousands of RNA fragments tested for over- or under-expression of more than one and one-half times more or less expression than in control, for mice treated with C/C (no hormone, no melatonin control), C/M (no hormone/melatonin), EMP/C (estrogen/mid progesterone (that is, half the recommended dose of progesterone, or 50 mg (P4)) but no melatonin) and EMP/M (estrogen/mid progesterone (that is, half the recommended dose of progesterone, or 50 mg (P4)) and melatonin).
# [2] = tested on: mammary tumors in MMTV-neu mice; experiment: Mammary tumor growth and progression (tumor weight, volume, metastatic incidence), same study; format: in vivo; details: compared to control animals (FIG. 2)
# Text: (§1) We studied the effects of the present combination therapy as follows. We chose a mouse model, MMTV-neu mice, which express the neu oncogene that mimics HER2+ breast cancer. In a population of mice, both melatonin and HRT were given orally to correlate with the dosage method in women, basing the dosing on diet based on the calories an average woman consumes daily, namely, 1800 kcal, but adjusting for the small size and metabolism of the mice. Estrogen+progestin HRT contained the bioidentical hormones 17β-estradiol (E2) at the currently recommended dosage for women (0.5 mg/1800 kcal) and progesterone (P4) at half of the recommended dose (50 mg/1800 kcal). For example, the daily mouse dose would be less than 500 mcg progesterone (P4). Melatonin was provided in the drinking water at a concentration of 15 mg/L (dose equivalent to a 5 mg tablet for women) only during the night to supplement the normal nocturnal surge in endogenous melatonin. Using drinking water rather than food to administer melatonin allowed the mice continual access to the control and HRT diets, instead of just during the night (dark cycle).
# [3] = tested on: MMTV-neu mice (neu oncogene, mimics HER2+ breast cancer); experiment: Mammary tumor onset (latency) and incidence in MMTV-neu mice given oral HRT diet and/or nocturnal melatonin in drinking water; format: in vivo
# Text: as §1
# Referring now to FIG. 1, survival curves are shown which represent the age of primary mammary tumor onset in weeks, on the x axis, and percent mammary tumor incidence on the y axis. FIG. 1a represents age of primary mammary tumor onset and incidence between control (C/V) vs. melatonin (C/M) groups, with C signifying no hormone administration, V signifying no melatonin administration, and M signifying melatonin administration. FIG. 1b represents control vs. HRT (HRT/V) groups, with C signifying no hormone administration, V signifying no melatonin administration, and with HRT signifying Hormone Replacement Therapy (in FIG. 1b, without melatonin, or “V”). FIG. 1c represents the results of HRT/V versus HRT/M administration (M=melatonin) and FIG. 1d represents the results of CN versus HRT/M administration. […] No change in body weight occurred as a result of the treatments. […] FIG. 1c represents HRT vs. HRT plus melatonin; FIG. 1d represents control versus HRT plus melatonin.
structure (smiles),measurement,setting,value
COc1ccc2[nH]cc(CCNC(C)=O)c2c1 [melatonin],"RNA expression changes (upregulation and downregulation), in words",[1],limited number of RNA expression changes
same,tumor volume,[2],significant decrease
same,tumor weight,[2],significant decrease
same,"incidence of mammary cancer, in words",[3]; compared to control animals,did not modify
same,"latency of mammary cancer (age of primary tumor onset), in words",[3]; compared to control animals,did not modify
same,incidence of mammary cancer (animals with tumor/animals in group),[3]; control 44/57,42/57
same,incidence of mammary cancer,[3]; control 77%,74%
